Earlier results on 1 compound are cited in patent US7964610B2, “Buprenorphine derivatives and uses thereof” (Reckitt Benckiser Healthcare (UK) Limited, priority 2006, dated 2011).

`CO[C@]12CCC3(C[C@@H]1[C@](C)(O)C(C)(C)C)[C@H]1Cc4ccc(O)c5c4[C@@]3(CCN1CC1CC1)[C@H]2O5` [buprenorphine]: the “bioavailability when taken orally” value (oral (swallowed)) is recorded as around 5%. The “bioavailability when absorbed sublingually” value (sublingual) was “approximately fifty”.
